Test results from the NIST ThermoML archive (doi:10.1021/acs.jced.7b00429).
± gives the expanded uncertainty stated by the source.

Test: xn = mol fraction of the nth substance listed
Settings: 100 kPa, Liquid; for viscosity: Falling or rolling sphere viscometry; for speed of sound: Frequency=3 MHz, Single path-length method; for mass density: Vibrating tube method

CCn1cc[n+](C)c1.O=S(=O)([O-])C(F)(F)F [1-ethyl-3-methylimidazolium trifluoromethanesulfonate] + C[S+](C)[O-]
Settings | mass density [kg/m3] | speed of sound [m/s] | viscosity [mPa·s]
298.15 K, x1 = 0.1068 | 1168.75 ± 2 | 1488 ± 10 | 3.65 ± 1.1
298.15 K, x1 = 0.2015 | 1216.25 ± 2.1 | 1477.1 ± 10 | 5.35 ± 1.6
298.15 K, x1 = 0.3077 | 1256.63 ± 2.1 | 1468.6 ± 10 | 7.89 ± 2.4
298.15 K, x1 = 0.4023 | 1284.76 ± 2.1 | 1462.5 ± 10 | 11.82 ± 3.6
298.15 K, x1 = 0.4933 | 1306.53 ± 2.2 | 1456.5 ± 10 | 16.26 ± 4.9
298.15 K, x1 = 0.6022 | 1328.03 ± 2.2 | 1453 ± 10 | 21.05 ± 6.3
298.15 K, x1 = 0.6993 | 1344 ± 2.3 | 1449.9 ± 10 | 26.12 ± 7.8
298.15 K, x1 = 0.7929 | 1357.15 ± 2.4 | 1445.6 ± 10 | 31.96 ± 9.6
298.15 K, x1 = 0.9008 | 1370.28 ± 2.5 | 1441.2 ± 10 | 38.88 ± 12
298.15 K, x1 = 1 | 1379.91 ± 2.5 | 1436 ± 10 | 45.67 ± 14
303.15 K, x1 = 0.1068 | 1164 ± 2 | 1472.7 ± 10 | 3.26 ± 0.98
303.15 K, x1 = 0.2015 | 1211.78 ± 2.1 | 1462.7 ± 10 | 4.72 ± 1.4
303.15 K, x1 = 0.3077 | 1252.35 ± 2.1 | 1454.9 ± 10 | 6.9 ± 2.1
303.15 K, x1 = 0.4023 | 1280.52 ± 2.1 | 1449.4 ± 10 | 10.2 ± 3.1
303.15 K, x1 = 0.4933 | 1302.34 ± 2.2 | 1443.8 ± 10 | 13.93 ± 4.2
303.15 K, x1 = 0.6022 | 1323.93 ± 2.2 | 1440.6 ± 10 | 17.95 ± 5.4
303.15 K, x1 = 0.6993 | 1339.92 ± 2.3 | 1437.8 ± 10 | 22.18 ± 6.7
303.15 K, x1 = 0.7929 | 1353.08 ± 2.4 | 1433.9 ± 10 | 27.03 ± 8.1
303.15 K, x1 = 0.9008 | 1366.19 ± 2.4 | 1430 ± 10 | 32.74 ± 9.8
303.15 K, x1 = 1 | 1375.71 ± 2.5 | 1425.4 ± 10 | 38.31 ± 12
308.15 K, x1 = 0.1068 | 1159.28 ± 2 | 1457.5 ± 10 | 2.94 ± 0.88
308.15 K, x1 = 0.2015 | 1207.5 ± 2.1 | 1448.3 ± 10 | 4.2 ± 1.3
308.15 K, x1 = 0.3077 | 1248.17 ± 2.1 | 1441.2 ± 10 | 6.08 ± 1.8
308.15 K, x1 = 0.4023 | 1276.4 ± 2.1 | 1436.4 ± 10 | 8.91 ± 2.7
308.15 K, x1 = 0.4933 | 1298.26 ± 2.2 | 1431.3 ± 10 | 12.06 ± 3.6
308.15 K, x1 = 0.6022 | 1319.96 ± 2.2 | 1428.4 ± 10 | 15.48 ± 4.6
308.15 K, x1 = 0.6993 | 1335.83 ± 2.3 | 1425.8 ± 10 | 19.05 ± 5.7
308.15 K, x1 = 0.7929 | 1349.06 ± 2.4 | 1422.3 ± 10 | 23.08 ± 6.9
308.15 K, x1 = 0.9008 | 1362.09 ± 2.4 | 1418.7 ± 10 | 27.81 ± 8.3
308.15 K, x1 = 1 | 1371.51 ± 2.5 | 1414.3 ± 10 | 32.38 ± 9.7
313.15 K, x1 = 0.1068 | 1154.49 ± 2 | 1442.4 ± 10 | 2.66 ± 0.8
313.15 K, x1 = 0.2015 | 1203.23 ± 2.1 | 1434 ± 10 | 3.76 ± 1.1
313.15 K, x1 = 0.3077 | 1243.91 ± 2.1 | 1427.7 ± 10 | 5.42 ± 1.6
313.15 K, x1 = 0.4023 | 1272.21 ± 2.1 | 1423.5 ± 10 | 7.85 ± 2.4
313.15 K, x1 = 0.4933 | 1294.19 ± 2.2 | 1418.8 ± 10 | 10.52 ± 3.2
313.15 K, x1 = 0.6022 | 1315.98 ± 2.2 | 1416.5 ± 10 | 13.47 ± 4
313.15 K, x1 = 0.6993 | 1331.89 ± 2.3 | 1414 ± 10 | 16.52 ± 5
313.15 K, x1 = 0.7929 | 1345.04 ± 2.3 | 1410.8 ± 10 | 19.91 ± 6
313.15 K, x1 = 0.9008 | 1358.06 ± 2.4 | 1407.4 ± 10 | 23.88 ± 7.2
313.15 K, x1 = 1 | 1367.36 ± 2.5 | 1403 ± 10 | 27.68 ± 8.3
318.15 K, x1 = 0.1068 | 1149.74 ± 2 | 1425.5 ± 10 | 2.42 ± 0.73
318.15 K, x1 = 0.2015 | 1198.95 ± 2.1 | 1419.8 ± 10 | 3.39 ± 1
318.15 K, x1 = 0.3077 | 1239.74 ± 2.1 | 1414.3 ± 10 | 4.85 ± 1.5
318.15 K, x1 = 0.4023 | 1268.06 ± 2.1 | 1410.8 ± 10 | 6.96 ± 2.1
318.15 K, x1 = 0.4933 | 1290.23 ± 2.2 | 1406.5 ± 10 | 9.26 ± 2.8
318.15 K, x1 = 0.6022 | 1312.02 ± 2.2 | 1404.5 ± 10 | 11.82 ± 3.6
318.15 K, x1 = 0.6993 | 1327.93 ± 2.3 | 1401.9 ± 10 | 14.45 ± 4.3
318.15 K, x1 = 0.7929 | 1341 ± 2.3 | 1399.5 ± 10 | 17.32 ± 5.2
318.15 K, x1 = 0.9008 | 1353.95 ± 2.4 | 1396.5 ± 10 | 20.68 ± 6.2
318.15 K, x1 = 1 | 1363.21 ± 2.5 | 1392.7 ± 10 | 23.86 ± 7.2
323.15 K, x1 = 0.1068 | 1144.99 ± 2 | 1410.4 ± 10 | 2.22 ± 0.67
323.15 K, x1 = 0.2015 | 1194.68 ± 2.1 | 1405.7 ± 10 | 3.08 ± 0.92
323.15 K, x1 = 0.3077 | 1235.66 ± 2.1 | 1401 ± 10 | 4.37 ± 1.3
323.15 K, x1 = 0.4023 | 1263.96 ± 2.1 | 1398.1 ± 10 | 6.22 ± 1.9
323.15 K, x1 = 0.4933 | 1286.19 ± 2.2 | 1394.3 ± 10 | 8.23 ± 2.5
323.15 K, x1 = 0.6022 | 1307.97 ± 2.2 | 1392.7 ± 10 | 10.45 ± 3.1
323.15 K, x1 = 0.6993 | 1323.95 ± 2.3 | 1390.7 ± 10 | 12.72 ± 3.8
323.15 K, x1 = 0.7929 | 1337.02 ± 2.3 | 1388.2 ± 10 | 15.19 ± 4.6
323.15 K, x1 = 0.9008 | 1349.9 ± 2.4 | 1385.5 ± 10 | 18.05 ± 5.4
323.15 K, x1 = 1 | 1359.07 ± 2.5 | 1381.7 ± 10 | 20.75 ± 6.2
